The source of these data is ChEMBL document CHEMBL1177813, “Design and synthesis of trivalent ligands targeting opioid, cholecystokinin, and melanocortin receptors for the treatment of pain” (Bioorg Med Chem Lett, 2010).

Each structure is given as a SMILES string. Active and inactive are the calls of the source. The rule behind the calls is not given here. Where a SMILES comes first, the peptide text is derived from it. [ ]: non-standard residue; d: D form. Nle = CCCC[C@H](N)C(=O)O

One experiment deals with Melanocortin receptor 4 (Homo sapiens, UniProt P32245). Description: Displacement of Eu-NDP-alphaMSH from human MC4 receptor expressed in human HEK293 cells. Format: cell-based.
The target in experiment [1] is Delta-type opioid receptor (Mus musculus, UniProt P32300). Briefly: Agonist activity at delta opioid receptor in mouse vas deferens assessed as inhibition of electrically-stimulated muscle contraction. The format is functional, tissue-based.
The nature of experiment [2]: Agonist activity at CCK receptor in Hartley guinea pig ileum longitudinal muscle with myenteric plexus assessed as inhibition of electrically-stimulated muscle contraction at 1 uM relative to KCl. Format: functional, Cavia porcellus. Set-up: scale not given: the % may be the effect or the level left.
Experiment [3] deals with Delta-type opioid receptor (Homo sapiens, UniProt P41143). Briefly: Displacement of [3H]DPDPE from human delta opioid receptor expressed in mouse HN9.10 cells. Format: cell-based.
In experiment [4] the target is Mu-type opioid receptor (Rattus norvegicus, UniProt P33535). Description: Displacement of [3H]DAMGO from rat mu opioid receptor expressed in mouse HN9.10 cells. Format: cell-based.
Experiment [5] concerns the target T1, Cholecystokinin receptor type A (Homo sapiens, UniProt P32238).
T1 sequence (P32238 whole entry): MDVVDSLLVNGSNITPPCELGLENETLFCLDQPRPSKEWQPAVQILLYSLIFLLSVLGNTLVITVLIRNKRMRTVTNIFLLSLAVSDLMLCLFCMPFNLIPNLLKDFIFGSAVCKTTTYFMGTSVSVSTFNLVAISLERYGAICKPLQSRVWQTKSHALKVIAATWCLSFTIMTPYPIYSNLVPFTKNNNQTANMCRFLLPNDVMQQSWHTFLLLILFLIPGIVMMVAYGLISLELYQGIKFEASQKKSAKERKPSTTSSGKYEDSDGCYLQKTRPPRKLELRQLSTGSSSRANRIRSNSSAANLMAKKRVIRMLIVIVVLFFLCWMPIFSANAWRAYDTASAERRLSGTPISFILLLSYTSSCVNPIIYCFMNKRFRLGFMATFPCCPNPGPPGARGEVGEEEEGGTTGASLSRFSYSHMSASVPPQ
Description: Displacement of [125I]CCK-8(SO3) from human CCK1 receptor expressed in human HEK293 cells. Format: cell-based.

Experiment [6] has as its target T2, Gastrin/cholecystokinin type B receptor (Homo sapiens, UniProt P32239).
T2 sequence (P32239 whole entry): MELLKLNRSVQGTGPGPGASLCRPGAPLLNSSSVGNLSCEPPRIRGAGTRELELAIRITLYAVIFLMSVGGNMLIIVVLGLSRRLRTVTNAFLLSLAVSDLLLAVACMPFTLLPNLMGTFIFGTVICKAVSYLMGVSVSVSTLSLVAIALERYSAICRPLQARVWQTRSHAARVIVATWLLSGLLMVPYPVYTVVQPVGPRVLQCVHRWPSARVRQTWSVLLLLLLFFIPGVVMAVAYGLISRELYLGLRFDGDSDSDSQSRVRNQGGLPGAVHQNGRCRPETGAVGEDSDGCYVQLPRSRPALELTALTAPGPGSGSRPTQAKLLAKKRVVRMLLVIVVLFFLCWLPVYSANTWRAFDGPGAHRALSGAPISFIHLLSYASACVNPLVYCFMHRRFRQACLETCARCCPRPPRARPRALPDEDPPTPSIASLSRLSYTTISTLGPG
Description: Displacement of [125I]CCK-8(SO3) from human CCK2 receptor expressed in human HEK293 cells. The format is cell-based.

The target in experiment [7] is Mu-type opioid receptor (Cavia porcellus, UniProt P97266). Briefly: Agonist activity at mu opioid receptor in guinea pig ileum assessed as inhibition of electrically-stimulated muscle contraction. The format is functional, tissue-based.
Another experiment is filed under the species Cavia porcellus. Description: […] activity at CCK receptor in Hartley guinea pig ileum longitudinal muscle with myenteric plexus assessed as inhibition of CCK8-stimulated muscle contraction at 1 uM. The format is functional, tissue-based.
For the next experiment, the species on record is Homo sapiens. Description: Selectivity ratio of Ki for human CCK1 receptor to Ki for human CCk2 receptor.

Melanocortin receptor 4, sequence (P32245 whole entry): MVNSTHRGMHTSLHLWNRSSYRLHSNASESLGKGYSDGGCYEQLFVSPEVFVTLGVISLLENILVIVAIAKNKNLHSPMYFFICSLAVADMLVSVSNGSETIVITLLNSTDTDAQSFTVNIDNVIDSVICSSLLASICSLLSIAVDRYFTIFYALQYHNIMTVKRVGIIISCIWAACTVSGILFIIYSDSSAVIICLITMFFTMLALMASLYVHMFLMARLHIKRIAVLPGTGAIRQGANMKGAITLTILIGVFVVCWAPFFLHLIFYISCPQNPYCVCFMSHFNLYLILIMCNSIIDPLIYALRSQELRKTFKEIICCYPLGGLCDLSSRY
Delta-type opioid receptor (Mus musculus, UniProt P32300), sequence (P32300 whole entry): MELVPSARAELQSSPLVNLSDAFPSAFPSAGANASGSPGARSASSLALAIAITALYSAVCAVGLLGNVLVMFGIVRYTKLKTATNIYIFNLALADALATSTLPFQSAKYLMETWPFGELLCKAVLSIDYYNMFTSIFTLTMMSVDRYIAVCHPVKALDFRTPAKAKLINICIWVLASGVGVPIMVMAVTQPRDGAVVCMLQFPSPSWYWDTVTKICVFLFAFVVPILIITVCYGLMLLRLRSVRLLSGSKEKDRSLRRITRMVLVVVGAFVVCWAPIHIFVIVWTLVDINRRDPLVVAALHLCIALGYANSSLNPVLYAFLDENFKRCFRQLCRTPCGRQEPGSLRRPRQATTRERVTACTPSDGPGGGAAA
Delta-type opioid receptor (Homo sapiens, UniProt P41143), sequence (P41143 whole entry): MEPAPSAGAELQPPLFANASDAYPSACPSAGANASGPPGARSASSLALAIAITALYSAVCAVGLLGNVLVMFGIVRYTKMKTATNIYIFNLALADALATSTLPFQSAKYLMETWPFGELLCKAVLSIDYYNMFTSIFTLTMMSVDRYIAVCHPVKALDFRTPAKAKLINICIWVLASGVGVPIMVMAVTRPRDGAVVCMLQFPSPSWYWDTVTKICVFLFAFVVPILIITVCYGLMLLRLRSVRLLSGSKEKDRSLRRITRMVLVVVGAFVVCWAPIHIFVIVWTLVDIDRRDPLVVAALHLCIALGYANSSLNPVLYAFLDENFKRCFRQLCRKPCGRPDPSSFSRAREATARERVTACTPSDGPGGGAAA
Mu-type opioid receptor (Cavia porcellus, UniProt P97266), sequence (P97266 whole entry): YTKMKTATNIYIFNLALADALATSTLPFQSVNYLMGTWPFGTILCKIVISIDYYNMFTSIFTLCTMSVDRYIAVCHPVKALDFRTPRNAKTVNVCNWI
Mu-type opioid receptor (Rattus norvegicus, UniProt P33535), sequence (P33535 whole entry): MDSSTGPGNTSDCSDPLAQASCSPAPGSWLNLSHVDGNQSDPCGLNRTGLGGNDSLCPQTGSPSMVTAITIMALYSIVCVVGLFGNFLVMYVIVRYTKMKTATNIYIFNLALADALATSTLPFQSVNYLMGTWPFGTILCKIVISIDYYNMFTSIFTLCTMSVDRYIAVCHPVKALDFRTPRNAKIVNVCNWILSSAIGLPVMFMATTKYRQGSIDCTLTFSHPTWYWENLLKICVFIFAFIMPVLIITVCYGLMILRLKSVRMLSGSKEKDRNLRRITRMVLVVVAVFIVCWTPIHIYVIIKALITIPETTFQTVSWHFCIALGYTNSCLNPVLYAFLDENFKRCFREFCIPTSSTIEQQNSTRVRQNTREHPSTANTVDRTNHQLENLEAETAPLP

For `CCCC[C@H](NC(=O)[C@H](Cc1c[nH]c2ccccc12)NC(=O)[C@H](CCCN=C(N)N)NC(=O)[C@@H](Cc1ccc2ccccc2c1)NC(=O)[C@H](Cc1cnc[nH]1)NC(=O)[C@@H](N)Cc1ccccc1)C(N)=O`, the IC50 on Melanocortin receptor 4 worked out at 0.2 µM.

As for `CCCC[C@H](NC(=O)[C@H](Cc1c[nH]c2ccccc12)NC(=O)[C@H](CCCNC(=N)N)NC(=O)[C@@H](Cc1ccccc1)NC(=O)[C@H](Cc1cnc[nH]1)NC(=O)[C@H](Cc1ccccc1)NC(=O)CNC(=O)[C@@H](C)NC(=O)[C@@H](N)Cc1ccc(O)cc1)C(=O)N[C@@H](CC(=O)O)C(=O)N[C@@H](Cc1ccccc1)C(N)=O`, the IC50 in [1] was 0.04 µM; in experiment [3] it was 0.0126 µM; at Mu-type opioid receptor [4] it was 0.0316 µM; in [5], 2.51 µM; in experiment [6], 0.0316 µM; on Melanocortin receptor 4 it was 1.3 µM. In addition, the IC50 on Mu-type opioid receptor [7] came out at 0.13 µM. Besides, the Activity in [2] is 0%. In addition, the Ki in [3] amounted to 0.0062 µM; at Mu-type opioid receptor [4], 0.014 µM; in experiment [5] (read-out: Ki), 1.4 µM; in [6] (read-out: Ki) it was 0.018 µM. Further, in the experiment filed under Cavia porcellus, the Ke entry is “inactive”.

`CCCC[C@H](NC(=O)[C@H](Cc1c[nH]c2ccccc12)NC(=O)[C@H](CCCNC(=N)N)NC(=O)[C@@H](Cc1ccc2ccccc2c1)NC(=O)[C@H](Cc1cnc[nH]1)NC(=O)[C@H](Cc1ccccc1)NC(=O)[C@@H](C)NC(=O)[C@@H](N)Cc1ccc(O)cc1)C(=O)N[C@@H](CC(=O)O)C(=O)N[C@@H](Cc1ccccc1)C(N)=O`: the IC50 in [1] was 0.37 µM; in experiment [3], 0.0794 µM; at Mu-type opioid receptor [4], 0.501 µM; in experiment [5] it was 0.00158 µM; in [6], 0.2 µM; at Melanocortin receptor 4, 0.7 µM. For the same molecule, the IC50 on Mu-type opioid receptor [7] is 2.3 µM. The Activity in experiment [2] is given as 0%. In addition, the Ki is 0.042 µM in experiment [3], 0.25 µM at Mu-type opioid receptor [4], 0.0016 µM in [5] (read-out: Ki) and 0.19 µM in experiment [6] (read-out: Ki). In addition, the Ke result in the experiment filed under Cavia porcellus was “inactive”. Moreover, in the experiment filed under Homo sapiens, the Ratio Ki amounted to 119.

For the molecule `Cc1cc(O)cc(C)c1C[C@H](N)C(=O)N1CC(=O)N[C@@H](Cc2cnc[nH]2)C(=O)N[C@H](Cc2ccccc2)C(=O)N[C@@H](CCCNC(=N)N)C(=O)N[C@@H](Cc2c[nH]c3ccccc23)C(=O)N[C@H](C(=O)N[C@@H](CC(=O)O)C(=O)N[C@@H](Cc2ccccc2)C(N)=O)CSSC[C@@H](N)C1=O`, in experiment [2], the Activity was 0%. Moreover, the Ki result in experiment [6] (hek293) is given as “Not Active”. Further, the Ke result in the experiment listed under Cavia porcellus is “inactive”.

For the molecule `C[C@@H](NC(=O)[C@@H](N)Cc1ccc(O)cc1)C(=O)NCC(=O)N[C@@H](Cc1ccccc1)C(=O)NCCCC[C@H](NC(=O)[C@H](Cc1c[nH]c2ccccc12)NC(=O)[C@H](CCCN=C(N)N)NC(=O)[C@@H](Cc1ccc(Cl)cc1)NC(=O)[C@@H](N)Cc1cnc[nH]1)C(=O)N[C@@H](CC(=O)O)C(=O)N[C@@H](Cc1ccccc1)C(N)=O`, at Mu-type opioid receptor [7], the IC50 was 0.33 µM.

Consider `CCCC[C@H](NC(=O)[C@H](Cc1c[nH]c2ccccc12)NC(=O)[C@H](CCCN=C(N)N)NC(=O)[C@@H](Cc1ccc2ccccc2c1)NC(=O)[C@H](Cc1cnc[nH]1)NC(=O)[C@H](Cc1ccccc1)NC(=O)[C@@H](C)NC(=O)[C@@H](N)Cc1c(C)cc(O)cc1C)C(=O)N[C@@H](CC(=O)O)C(=O)N[C@@H](Cc1ccccc1)C(N)=O`, for which the IC50 in [1] was 0.11 µM; in experiment [3] it was 0.00794 µM; at Mu-type opioid receptor [4] it was 0.01 µM; in [5], 0.000794 µM; in experiment [6] it was 0.2 µM; at Melanocortin receptor 4, 0.5 µM. For the same molecule, the IC50 on Mu-type opioid receptor [7] stood at 0.066 µM. Moreover, the Ki in [3] turned out to be 0.0037 µM; at Mu-type opioid receptor [4] it was 0.0049 µM; in experiment [6] (read-out: Ki) it was 0.18 µM.

In the case of `CCCC[C@H](NC(=O)[C@@H](N)Cc1ccc(O)cc1)C(=O)N[C@@H](CC(=O)O)C(=O)N[C@@H](Cc1ccccc1)C(N)=O` (H-Y[Nle]DF-NH2), the Ki entry in [5] (hek293) is given as “Not Active”.

Take `CCCC[C@H](NC(=O)[C@H](Cc1c[nH]c2ccccc12)NC(=O)[C@H](CCCNC(=N)N)NC(=O)[C@@H](Cc1ccc2ccccc2c1)NC(=O)[C@H](Cc1cnc[nH]1)NC(=O)[C@H]1Cc2ccccc2CN1C(=O)[C@@H](N)Cc1c(C)cc(O)cc1C)C(=O)N[C@@H](CC(=O)O)C(=O)N[C@@H](Cc1ccccc1)C(N)=O`: the Activity in [2] was found to be 0%. For the same molecule, the Ke entry in the experiment filed under Cavia porcellus was “inactive”.

With `C[C@@H](NC(=O)[C@@H](N)Cc1ccc(O)cc1)C(=O)NCC(=O)N[C@@H](Cc1ccccc1)C(=O)NCCCC[C@H](NC(=O)[C@H](Cc1c[nH]c2ccccc12)NC(=O)[C@H](CCCNC(=N)N)NC(=O)[C@@H](Cc1ccc(Cl)cc1)NC(=O)[C@@H](N)Cc1cnc[nH]1)C(=O)N[C@@H](CC(=O)O)C(=O)N[C@@H](Cc1ccccc1)C(N)=O`, the Activity in [2] came to 0%. The Ki result in experiment [5] (hek293) and in experiment [6] (hek293) was “Not Active” throughout. The Ke result in the experiment listed under Cavia porcellus was “inactive”.

`CCCC[C@H](NC(=O)[C@H](Cc1c[nH]c2ccccc12)NC(=O)[C@H](CCCN=C(N)N)NC(=O)[C@@H](Cc1ccc2ccccc2c1)NC(=O)[C@H](Cc1cnc[nH]1)NC(=O)[C@H]1Cc2ccccc2CN1C(=O)[C@@H](N)Cc1c(C)cc(O)cc1C)C(=O)N[C@@H](CC(=O)O)C(=O)N[C@@H](Cc1ccccc1)C(N)=O`: the IC50 was 0.13 µM in experiment [1]; 0.0126 µM in experiment [3]; 0.0398 µM at Mu-type opioid receptor [4]; 0.0316 µM in [5]; 0.126 µM in experiment [6]; 0.16 µM on Melanocortin receptor 4. The IC50 on Mu-type opioid receptor [7] was 0.57 µM. Besides, the Ki in experiment [3] stood at 0.0062 µM; at Mu-type opioid receptor [4] it was 0.018 µM; in experiment [5] (read-out: Ki), 0.032 µM; in experiment [6] (read-out: Ki), 0.1 µM.

Take `CCCC[C@H](NC(=O)[C@H](Cc1c[nH]c2ccccc12)NC(=O)[C@H](CCCNC(=N)N)NC(=O)[C@@H](Cc1ccc2ccccc2c1)NC(=O)[C@H](Cc1cnc[nH]1)NC(=O)[C@H](Cc1ccccc1)NC(=O)[C@@H](C)NC(=O)[C@@H](N)Cc1c(C)cc(O)cc1C)C(=O)N[C@@H](CC(=O)O)C(=O)N[C@@H](Cc1ccccc1)C(N)=O`: the Activity in experiment [2] is recorded as 0%. Besides, in the experiment listed under Cavia porcellus, the Ke result is “inactive”.

For `Cc1cc(O)cc(C)c1C[C@H](N)C(=O)N1CC(=O)N[C@@H](Cc2cnc[nH]2)C(=O)N[C@H](Cc2ccc3ccccc3c2)C(=O)N[C@@H](CCCNC(=N)N)C(=O)N[C@@H](Cc2c[nH]c3ccccc23)C(=O)N[C@H](C(=O)N[C@@H](CC(=O)O)C(=O)N[C@@H](Cc2ccccc2)C(N)=O)CSSC[C@@H](N)C1=O`, the IC50 was 0.61 µM in [1]; 0.0126 µM in [3]; 0.0126 µM at Mu-type opioid receptor [4]; 0.44 µM at Melanocortin receptor 4; 0.28 µM at Mu-type opioid receptor [7]. Also, the Activity in experiment [2] amounted to 0%. Moreover, the Ki in experiment [3] is 0.0056 µM; on Mu-type opioid receptor [4], 0.0059 µM; in experiment [5] (hek293) it was “Not Active”; in experiment [6] (hek293), “Not Active”. In the experiment filed under Cavia porcellus, the Ke result is “inactive”.
